Source: PMC7265341, “Quantifying CDK inhibitor selectivity in live cells” (Nature Communications, 2020)
Where two headings read alike, the source gives them in different places.

Experiments:
CDK14/Cyclin Y = CDK14/Cyclin Y (Homo sapiens, UniProt O94921); experiment: NanoBRET live-cell target engagement, CDK14-NanoLuc/Cyclin Y in HEK-293; assay type: binding
CDK10/Cyclin L2 = CDK10/Cyclin L2 (Homo sapiens, UniProt Q15131); experiment: NanoBRET live-cell target engagement, CDK10-NanoLuc/Cyclin L2 in HEK-293
CDK10/Cyclin L2, sequence (Q15131 whole entry): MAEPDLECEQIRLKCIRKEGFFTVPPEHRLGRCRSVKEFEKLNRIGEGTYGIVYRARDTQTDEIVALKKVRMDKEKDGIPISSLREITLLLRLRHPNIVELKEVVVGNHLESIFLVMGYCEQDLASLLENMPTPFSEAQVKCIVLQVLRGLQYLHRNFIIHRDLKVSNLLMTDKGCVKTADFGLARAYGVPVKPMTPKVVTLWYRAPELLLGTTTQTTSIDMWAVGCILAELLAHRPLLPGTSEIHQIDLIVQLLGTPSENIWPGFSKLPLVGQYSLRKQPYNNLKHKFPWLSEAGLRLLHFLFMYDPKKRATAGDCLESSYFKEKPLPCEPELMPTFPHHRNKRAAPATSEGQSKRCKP

[1] = CDK14/Y, average (± SEM where n=3), read-out: IC50
[2] = CDK14/Y, experiment 1, read-out: IC50
[3] = CDK14/Y, experiment 2, read-out: IC50
[4] = CDK14/Y, average, read-out: Inhibition at 10µM (%)
[5] = CDK14/Y, experiment 1, read-out: Inhibition at 10µM (%)
[6] = CDK14/Y, experiment 2, read-out: Inhibition at 10µM (%)
[7] = read-out: Inhibition at 10µM (%), CDK10/L2, average
[8] = read-out: Inhibition at 10µM (%), CDK10/L2, experiment 1
[9] = read-out: Inhibition at 10µM (%), CDK10/L2, experiment 2
[10] = 10µM, average of experiments, read-out: CDK14/Y Inhibition at 10µM (%)
[11] = 10µM, independent experiment 1, read-out: CDK14/Y Inhibition at 10µM (%)
[12] = 10µM, independent experiment 2, read-out: CDK14/Y Inhibition at 10µM (%)
[13] = read-out: CDK10/L2 Inhibition at 10µM (%), 10µM, average of experiments
[14] = read-out: CDK10/L2 Inhibition at 10µM (%), 10µM, independent experiment 1
[15] = read-out: CDK10/L2 Inhibition at 10µM (%), 10µM, independent experiment 2

CDK14/Cyclin Y, sequence (O94921 whole entry): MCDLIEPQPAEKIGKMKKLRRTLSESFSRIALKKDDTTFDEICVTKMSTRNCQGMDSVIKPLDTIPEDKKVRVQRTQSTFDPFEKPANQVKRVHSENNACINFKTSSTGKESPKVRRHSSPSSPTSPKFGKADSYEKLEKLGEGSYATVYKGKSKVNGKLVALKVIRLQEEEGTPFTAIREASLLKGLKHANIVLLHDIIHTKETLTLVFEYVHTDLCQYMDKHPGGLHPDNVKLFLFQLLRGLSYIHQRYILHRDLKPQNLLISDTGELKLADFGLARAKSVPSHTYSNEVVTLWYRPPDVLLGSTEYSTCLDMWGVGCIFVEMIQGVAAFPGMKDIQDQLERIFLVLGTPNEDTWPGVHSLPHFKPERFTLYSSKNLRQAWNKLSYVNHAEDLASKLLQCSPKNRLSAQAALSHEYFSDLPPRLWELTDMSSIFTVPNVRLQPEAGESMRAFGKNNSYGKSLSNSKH
CDK14/Cyclin Y, sequence (Q8ND76 whole entry partner): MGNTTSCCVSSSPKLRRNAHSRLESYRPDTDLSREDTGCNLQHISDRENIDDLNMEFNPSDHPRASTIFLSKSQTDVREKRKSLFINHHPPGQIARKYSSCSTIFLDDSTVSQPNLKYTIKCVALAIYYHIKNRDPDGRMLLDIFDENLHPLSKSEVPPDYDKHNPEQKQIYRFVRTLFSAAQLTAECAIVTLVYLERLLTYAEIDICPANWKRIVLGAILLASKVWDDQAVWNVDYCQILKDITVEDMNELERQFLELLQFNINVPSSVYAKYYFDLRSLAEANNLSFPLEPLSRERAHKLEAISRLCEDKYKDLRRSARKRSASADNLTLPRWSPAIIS

Row | SMILES | inhibition at 10 µM (CDK14/Cyclin Y; [4]) [%] | inhibition at 10 µM (CDK14/Cyclin Y; [5]) [%] | inhibition at 10 µM (CDK14/Cyclin Y; [6]) [%] | inhibition at 10 µM (CDK10/Cyclin L2; [7]) [%] | inhibition at 10 µM (CDK10/Cyclin L2; [8]) [%] | inhibition at 10 µM (CDK10/Cyclin L2; [9]) [%] | Inhibition at 10µM (%) (CDK14/Cyclin Y; CDK14/Y, average) | Inhibition at 10µM (%) (CDK14/Cyclin Y; CDK14/Y, experiment 1) | Inhibition at 10µM (%) (CDK14/Cyclin Y; CDK14/Y, experiment 2) | Inhibition at 10µM (%) (CDK10/Cyclin L2; CDK10/L2, average) | Inhibition at 10µM (%) (CDK10/Cyclin L2; CDK10/L2, experiment 1) | Inhibition at 10µM (%) (CDK10/Cyclin L2; CDK10/L2, experiment 2) | also measured
1 | CC(C)c1cnn2c(NCc3ccccc3-n3cccn3)nc(OC3CCCNC3)nc12 (stereo not drawn) [LDC4297] |  |  |  |  |  |  | 89.0 | 88.6 | 89.3 | 29.7 | 25.4 | 34.0 | 
2 | CC(C)c1c2cc(-c3ccnc(N[C@H]4CC[C@H](NC5CCOCC5)CC4)n3)ccc2nn1C [LY2857785] |  |  |  |  |  |  | 90.6 | 90.3 | 90.9 | 80.7 | 81.9 | 79.4 | IC50 (CDK14/Cyclin Y; [1]): 510 nM; IC50 (CDK14/Cyclin Y; [2]): 392 nM; IC50 (CDK14/Cyclin Y; [3]): 630 nM; IC50 (CDK10/Cyclin L2; CDK10/L2, average (± SEM where n=3)): 600 nM; IC50 (CDK10/Cyclin L2; CDK10/L2, experiment 1): 490 nM; IC50 (CDK10/Cyclin L2; CDK10/L2, experiment 2): 710 nM
3 | CNC(=O)c1nn(C)c2c1C(C)(C)Cc1cnc(Nc3ccc(N4CCN(C)CC4)cc3)nc1-2 [Milciclib] | 74.3 | 71.9 | 76.8 | 30.6 | 32.3 | 28.9 |  |  |  |  |  |  | 
4 | CS(=O)(=O)N1CCC(NC(=O)c2[nH]ncc2NC(=O)c2c(Cl)cccc2Cl)CC1 [NVP-LCQ195] |  |  |  |  |  |  | 90.1 | 90.7 | 89.6 | 70.2 | 74.4 | 66.1 | IC50 (CDK14/Cyclin Y; [1]): 470 nM; IC50 (CDK14/Cyclin Y; [2]): 607 nM; IC50 (CDK14/Cyclin Y; [3]): 330 nM
5 | CN1CCC(c2c(O)cc(O)c3c(=O)cc(-c4ccccc4Cl)oc23)C1CO (stereo not drawn) [P276-00] |  |  |  |  |  |  | 50.9 | 51.1 | 50.7 | 11.6 | 10.1 | 13.1 | 
6 | CC(C)CC(=O)Nc1[nH]nc2c1CN(C(=O)C1CCN(C)CC1)C2(C)C [PHA-793887] |  |  |  |  |  |  |  |  |  |  |  |  | inhibition at 10 µM (CDK14/Cyclin Y; [10]): 81.4%; inhibition at 10 µM (CDK14/Cyclin Y; [11]): 81%; inhibition at 10 µM (CDK14/Cyclin Y; [12]): 81.8%; inhibition at 10 µM (CDK10/Cyclin L2; [13]): 30%; inhibition at 10 µM (CDK10/Cyclin L2; [14]): 32.9%; inhibition at 10 µM (CDK10/Cyclin L2; [15]): 27.2%
7 | CC(C)[C@H](CO)Nc1nc(Nc2ccc(C(=O)O)c(Cl)c2)c2ncn(C(C)C)c2n1 [Purvalanol B] |  |  |  |  |  |  |  |  |  |  |  |  | inhibition at 10 µM (CDK14/Cyclin Y; [10]): -0.116%; inhibition at 10 µM (CDK14/Cyclin Y; [11]): -3.3%; inhibition at 10 µM (CDK14/Cyclin Y; [12]): 3.1%; inhibition at 10 µM (CDK10/Cyclin L2; [13]): -1.9%; inhibition at 10 µM (CDK10/Cyclin L2; [14]): -2.4%; inhibition at 10 µM (CDK10/Cyclin L2; [15]): -1.5%
8 | CN1C/C=C/CCOc2cccc(c2)-c2ccnc(n2)Nc2cccc(c2)C1 [SB1317] |  |  |  |  |  |  |  |  |  |  |  |  | inhibition at 10 µM (CDK14/Cyclin Y; [10]): 97.2%; inhibition at 10 µM (CDK14/Cyclin Y; [11]): 96%; inhibition at 10 µM (CDK14/Cyclin Y; [12]): 98.5%; IC50 (CDK14/Cyclin Y; average (± SEM where n=3), read-out: CDK14/Y IC50): 29 nM; IC50 (CDK14/Cyclin Y; independent experiment 1, read-out: CDK14/Y IC50): 28 nM; IC50 (CDK14/Cyclin Y; independent experiment 2, read-out: CDK14/Y IC50): 29 nM; IC50 (CDK14/Cyclin Y; live HEK-293, 2 h, mean ± S.E.M. (n=3) or mean (n=2), read-out: IC50 for CDK/cyclin complexes, CDK14/Y): 29 nM; IC50 (CDK10/Cyclin L2; CDK10/L2 IC50 (nM), average (± SEM where n=3)): 520 nM; IC50 (CDK10/Cyclin L2; CDK10/L2 IC50 (nM), independent experiment 1): 530 nM; IC50 (CDK10/Cyclin L2; CDK10/L2 IC50 (nM), independent experiment 2): 520 nM; IC50 (CDK10/Cyclin L2; IC50 for CDK/cyclin complexes, CDK10/L2, live HEK-293, 2 h, mean ± S.E.M. (n=3) or mean (n=2)): 520 nM; inhibition at 10 µM (CDK10/Cyclin L2; [13]): 88%; inhibition at 10 µM (CDK10/Cyclin L2; [14]): 81.7%; inhibition at 10 µM (CDK10/Cyclin L2; [15]): 94.4%

Now from value to compound, other results behind:

Row | inhibition at 10 µM (CDK14/Cyclin Y; [4]) [%] | inhibition at 10 µM (CDK14/Cyclin Y; [5]) [%] | inhibition at 10 µM (CDK14/Cyclin Y; [6]) [%] | inhibition at 10 µM (CDK10/Cyclin L2; [7]) [%] | inhibition at 10 µM (CDK10/Cyclin L2; [8]) [%] | inhibition at 10 µM (CDK10/Cyclin L2; [9]) [%] | SMILES | Inhibition at 10µM (%) (CDK14/Cyclin Y; CDK14/Y, average) | Inhibition at 10µM (%) (CDK14/Cyclin Y; CDK14/Y, experiment 1) | Inhibition at 10µM (%) (CDK14/Cyclin Y; CDK14/Y, experiment 2) | Inhibition at 10µM (%) (CDK10/Cyclin L2; CDK10/L2, average) | Inhibition at 10µM (%) (CDK10/Cyclin L2; CDK10/L2, experiment 1) | Inhibition at 10µM (%) (CDK10/Cyclin L2; CDK10/L2, experiment 2) | also measured
9 | 29.2 | 25.1 | 33.2 | 7.8 | 9.5 | 6.2 | CC(C)N1CCN(c2ccc(Nc3ncc4cc5n(c4n3)C3(CCCCC3)CNC5=O)nc2)CC1 [Lerociclib] |  |  |  |  |  |  | 
10 | 16.5 | 15.4 | 17.7 | 16.4 | 15.4 | 17.3 | N#CCNC(=O)c1ccc(-c2ccnc(Nc3ccc(N4CCOCC4)cc3)n2)cc1 [Momelotinib] |  |  |  |  |  |  | 
11 | 45.4 | 56.3 | 34.4 | 4.6 | 8.8 | 0.3 | CN1CCN(c2ccc(Nc3ncc4cc(C#N)c(=O)n(C5CCCC5)c4n3)cc2)CC1 [ON123300] |  |  |  |  |  |  | IC50 (CDK14/Cyclin Y; [1]): 120 ± 60 nM; IC50 (CDK14/Cyclin Y; [2]): 34 nM; IC50 (CDK14/Cyclin Y; [3]): 220 nM; IC50 (CDK14/Cyclin Y; CDK14/Y, experiment 3, read-out: IC50): 99 nM
